The supplement of paper PMC10307832

Assays:
Assay in all cases: relative viability (nuclei count vs DMSO), 5 days (fraction); higher = more cells survive
[1] = compound: CCOC1=CC=CC=C1N=NC2=C(NN(C2=O)C3=NC(=CS3)C4=CC=CC=C4)C [BAM7] + NC(=O)Nc1cc(-c2cccc(F)c2)sc1C(=O)N[C@H]1CCCNC1 [AZD7762] (partner 0.2 µM)
Method in brief: (§1)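 After 5 days of treatment, lung cancer cells in 1536-well plates were fixed and stained in a single step (final 0.05% Triton X-100, 1% formaldehyde, 1 ug/ml Hoechst) and their nuclei counted on 4× images. Treatment had been applied by pin tool the day after seeding as one drug alone or as a fixed anchor-drug dose with five library-drug doses (not always all listed) in √10 steps. Relative viability is the nuclei count of treated wells divided by that of vehicle wells, and values are medians of duplicate plates.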

[2] = compound: CCn1c(-c2nonc2N)nc2c(C#CC(C)(C)O)ncc(OC[C@H]3CCCNC3)c21 + Nc1ncn([C@H]2C[C@H](O)[C@@H](CO)O2)c(=O)n1 [Decitabine] (partner 2 µM)
Method in brief: as §1

[3] = compound: CCn1c(-c2nonc2N)nc2c(C#CC(C)(C)O)ncc(OC[C@H]3CCCNC3)c21 + C[C@@H](Oc1cc(-c2cnn(C3CCNCC3)c2)cnc1N)c1c(Cl)ccc(F)c1Cl [Crizotinib] (partner 1 µM)
Method in brief: as §1

[4] = compound: CCOC1=CC=CC=C1N=NC2=C(NN(C2=O)C3=NC(=CS3)C4=CC=CC=C4)C [BAM7] + CC(=O)c1c(C)c2cnc(Nc3ccc(N4CCNCC4)cn3)nc2n(C2CCCC2)c1=O [Palbociclib] (partner 0.5 µM)
Method in brief: as §1

Cell Line	relative viability ([1]; first compound 0.5 µM)	relative viability ([1]; first compound 5 µM)	relative viability ([1]; first compound 15.81 µM)	relative viability ([1]; first compound 50 µM)	relative viability ([2]; first compound 0.01 µM)	relative viability ([2]; first compound 0.03162 µM)	relative viability ([2]; first compound 0.1 µM)	relative viability ([2]; first compound 0.3162 µM)	relative viability ([2]; first compound 1 µM)	relative viability ([3]; first compound 0.01 µM)	relative viability ([3]; first compound 0.03162 µM)	relative viability ([3]; first compound 0.1 µM)	relative viability ([3]; first compound 0.3162 µM)	relative viability ([3]; first compound 1 µM)	relative viability ([4]; first compound 0.5 µM)	relative viability ([4]; first compound 5 µM)	relative viability ([4]; first compound 15.81 µM)	relative viability ([4]; first compound 50 µM)
HCC-15	1.29	1.24	1.06	1.21	0.695	0.648	0.637	0.558	0.571	0.764	0.868	0.758	0.748	0.726	0.621	0.694	0.614	0.686
A-427	0.743	0.848	0.802	0.737	0.558	0.61	0.589	0.54	0.562	0.925	0.966	0.978	0.828	0.846	0.507	0.49	0.498	0.532
NCI-H1734	0.559	0.642	0.526	0.548	0.453	0.496	0.546	0.465	0.484	0.629	0.721	0.682	0.685	0.641	0.38	0.332	0.364	0.318
PC-14	0.356	0.317	0.334	0.374	0.25	0.2	0.222	0.197	0.29	0.925	0.863	0.944	0.94	0.839	0.592	0.479	0.335	0.42
NCI-H1915	0.676	0.671	0.759	0.741	0.254	0.252	0.258	0.248	0.248	0.909	0.909	0.809	0.872	0.856	0.598	0.548	0.516	0.501
NCI-H1666	0.847	0.826	0.902	0.762	0.71	0.657	0.809	0.834	0.735	1.04	1.1	0.966	0.943	0.968	0.628	0.627	0.669	0.677
HCC-366	0.173	0.19	0.191	0.186	0.342	0.34	0.361	0.302	0.335	0.505	0.644	0.59	0.501	0.534	0.406	0.343	0.303	0.389
PC-3 [JPC-3]	0.889	0.74	0.64	0.686	0.832		0.836	0.769	0.78	0.944	0.988	1.04	0.909	0.993	0.49	0.533	0.462	0.531
LC-2-ad	0.916	0.832	0.832	0.805	0.776	0.824	0.875	0.705	0.7	0.452	0.483	0.448	0.493	0.479	0.487	0.478	0.545	0.485
